# In patent US6492427B2, “Methods for treating multiple sclerosis” (priority 1998, dated 2002):
# Entries after “also recorded” stand apart in the source; their conditions may differ. *1 amine or outer side, *2 acyl side, *3 side chain or, on linkers, in order; H or OH if unused. Where a SMILES comes first, the peptide text is derived from it. Bridges are numbered along the chain shown (N, C = ends). Roman numbers before positions name the chains, in order. [ ]: non-standard residue; d: D form. Actinocin(9to1) = Cc1c2oc3c(C)ccc(C(=O)[*:1])c3nc-2c(C(=O)[*:2])c(N)c1=O; NMeV = CN[C@H](C(=O)O)C(C)C; Sar = CNCC(=O)O
# Assays:
# Format in all cases: cell-based, rat
# oligodendroglial cells = test: Nuclear integrity assay: counts of intact nuclei (Zap-oglobin lysis) after insulin and IGF-I withdrawal; conditions: for counts of intact nuclei compared to BM: alone in BM at 10^−5, 10^−7 and 10^−9 M; for numbers of intact nuclei for IGF-I and insulin withdrawn cells: alone in BM, actinomycin 1, 2.5, 5 μg/ml, cycloheximide 1, 5, 10, 50 μg/ml
# Experimental: In order to examine insulin and IGF-I dependent survival of the cells of the oligodendroglial lineage, cells were trophically deprived for a period of 24 hours at 16 DIV.
# Cells were trophically withdrawn by replacing the media with a serum free, chemically-defined base media (BM) lacking insulin and IGF-I (Bottenstein et al., 1988). The base media consisited of DMEM supplemented with penicillin (50 IU/ml); streptomycin (50 μg/ml); 1 mM sodium pyruvate; 50 μg/ml transferrin; 0.005 μg/ml sodium selenite; 16 μg/ml putrescine; 0.006 μg/ml progesterone and 0.1 mg/ml bovine serum albumin. All the cells were washed with BM twice before exposing them to individual treatment conditions. Control cells were washed and placed in BM supplemented with 2.5 ng/ml IGF-I and 5 μg/ml insulin to form the insulin media (IM).
# Cell survival in the cultures was assessed according to the method of (Soto and Sonnenschein, 1985). After washing and treatment in BM, BM-D9, IM and IM-D9 for 24 h, cells were harvested, centrifuged at 500 rpm for 5 min and the supernatant removed. Pelleted cells were then lysed with 200 μl of 10% Zap-oglobin (Coulter Electronics, FL, USA). The lysing agent is a detergent containing solution that lyses the plasma membrane but leaves the nuclei intact. The lysed solution was collected and vortexed. A small volume (10 μl) of the solution was removed and intact nuclei were counted using a haemocytometer. To be counted, nuclei had to show a completely intact smooth outer border. Counts of intact nuclei were pooled for three or four experiments (a total of 15-20 wells were used for each treatment condition). each treatment condition).
# OLs at 16 DIV were exposed to the different drug treatment conditions for 24 h, following which, the nuclear integrity assay was performed. On the day of the treatment, the cells growing in Nunc 24 well plates were washed twice with base media. Each treatment well received 50 μl of the appropriate drug solution and the total volume in the well was made up to 500 μl with either BM or IM.
# Nuclear counts were obtained from quadruplicate wells per treatment condition and the experiment was repeated twice. OLs were exposed to the following treatment conditions: 1) IM, 2) BM, 3) BM-D9, 4) (−)-Desmethyldeprenyl (BM-Ds9), 5) IM-D9 and 6) IM +10^−9 M (−)-Desmethyldeprenyl (IM-Ds9).
# The treatment conditions with the three general cytochrome P450 blockers were: 1) BM+Proadifen (2.5, 10, 25 μM), 2) BM-D9+Proadifen (2.5, 10, 25 μM), 3) BM-Ds9+Proadifen (2.5, 10, 25 μM), 4) BM+Metapyrone (50 μM), 5) BM-D9+Metapyrone (50 μM), 6) BM-Ds9+Metapyrone (50 μM), 7) BM+Piperonyl butoxide (100 μM), 5) BM-D9+Piperonyl butoxide (100 μM), 6) BM-Ds9+Piperonyl butoxide (100 μM).
# OLs at 16 DIV were washed twice with base media and exposed either to actinomycin, a transcriptional blocker or cycloheximide, a translational blocker for 24 h. […] Actinomycin and cycloheximide were either used with base media alone or in combination with 10^−9 M (−)-desmethyldeprenyl. Each treatment well received 50 μl of the drug solution and the total volume of the well was made up to 500 μl with base media.
# Counts of intact nuclei, obtained from quadruplicate wells per treatment condition were used to quantitate the effects of the transcriptional and translational blockers. Each experiment was repeated twice for experimental density series-II.
# [1] = tested on: mitochondrial membrane potential (ΔψM) of oligodendroglial cells; test: CMTMR estimation of mitochondrial membrane potential by confocal microscopy; parameters: ΔΨM (18 h): key to the marks not given beside the values; conditions: for capacity of (−)-deprenyl and (−)-desmethyldeprenyl to maintain ΔψM in OL mitochondria: 10^−5 M with 10^−9 M (−)-deprenyl or (−)-desmethyldeprenyl in BM; for increases in ΔψM induced by (−)-deprenyl on OL mitochondria: proadifen 10 μM, metyapone 50 μM or piperonyl butoxide 100 μM with 10^−9 M (−)-deprenyl in BM
# Experimental: The ΔψM was assessed by the addition of a lipophilic, potentiometric dye, chloromethyl-tetramethylrhodamine methyl ester (CMTMR, Mitotracker Orange™ Molecular Probes, Eugene, Oreg.). The CMTMR dye reacts with the thiol groups on proteins and peptides to form aldehyde fixable conjugates. Entry of the negatively charged mitochondrial matrix compartment is proportional to the difference in the membrane potential. Therefore, the CMTMR fluorescence labels the mitochondrial membrane potential generated due to the negativity difference between the mitochondrial matrix and the outside of the mitochondria. Upon cell fixation, CMTMR remains in the mitochondria and is not washed out unlike other mitochondrial potentiometric dyes like rhodamine123.
# Oligodendrocytes at 16 DIV were placed in trophically deprived BM for 18 h or treated with BM-D9 or BM-Ds9. […] The cells were incubated in CMTMR at 37° C. for 15 min. The cells were then fixed with 4% cold paraformaldehyde on ice for 30 min and washed twice with 0.1M PBS. Consequently, the coverslips were mounted on glass slides with Aquamount (Gurr, England).
# Individual mitochondria labeled with CMTMR were resolved by confocal microscopy. A Leica true confocal scanning (TCS) 4D microscope coupled to an argon-krypton laser (Omnichrome, USA) was used for cell imaging. A pinhole size of 20 with an excitation filter wavelength of 568 nm and an emission filter wavelength of 590 nm was used to image the CMTMR labeled mitochondria. Each field of the coverslip was imaged using an oil-immersion, 100 X, 1.3 N.A. objective at 512 by 512 by 8 bits per pixel resolution, background offset of −1 and line averaged 32 times in bi-directional line scan mode. Care was taken not to exceed the dynamic range of the gray value display. The confocal images obtained were saved on an optical drive in a tagged image file format (TIFF).
# Fluorescence intensity of individual mitochondria was measured using the Metamorph™ program. Metamorph™ compiles measurements of objects in a 8-bit image ranging from gray values 0 (background) and 255. In order to obtain fluorescence intensity measures, a rectangular region tool of 2×2 pixels was used to measure two randomly selected areas within each mitochondrion. A total of ten mitochondria obtained equally from all the regions of each cell were measured within each image. About 20 images were analyzed for each treatment condition thereby giving a sum of about 400 mitochondrial fluorescence intensity measures. The raw values were then further graphed and analyzed with the Microcal Origin 4.1 program. Frequency count was performed on the data, which classified the data in ordered bins. A frequency distribution was obtained with lower bin value set at 0 and higher bin value set at 260.
# [2] = tested on: MBP, PLP, GC and CNPase-I; test: Western blot of PROL and OL marker proteins; conditions: BM + 10^−9 M, 18 h
smiles,measurement,setting,value
"C#CCN(C)C(C)Cc1ccccc1 (single isomer, unassigned; (+)) [(+)-deprenyl]","concentration-survival relationship, numbers of intact nuclei","oligodendroglial cells; BM with 10^−5, 10^−7 and 10^−9 M, 24 h",did not alter the numbers of intact nuclei from the values found for BM
"CC(N)Cc1ccccc1 (single isomer, unassigned; (-)) [(−)-amphetamine]",capacity of (−)-deprenyl to increase survival of oligodendroglial cells,"oligodendroglial cells; 10^−3, 10^−5, 10^−7, 10^−9 M in combination with 10^−9 M (−)-deprenyl in BM, 24 h",markedly reduced the capacity of (−)-deprenyl to increase the survival
same,capacity of 10^−9 M (−)-desmethyldeprenyl to increase survival of oligodendroglial cells,"oligodendroglial cells; 10^−5 M with 10^−9 M (−)-desmethyldeprenyl in BM, 24 h",completely eliminated the capacity of 10^−9 M (−)-desmethyldeprenyl to increase the survival
same,counts of intact nuclei compared to BM,oligodendroglial cells; 24 h,did alter the counts of intact nuclei
same,capacity of (−)-deprenyl and (−)-desmethyldeprenyl to maintain ΔψM in OL mitochondria,[1]; 18 h,reduce the capacity of (−)-deprenyl and (−)-desmethyldeprenyl to maintain ΔψM
C#CCN[C@H](C)Cc1ccccc1 [(−)-desmethyldeprenyl],increase in counts of intact nuclei compared to those for BM,"oligodendroglial cells; BM + 10^−9 M, 24 h, metabolite experiments (FIG. 11)",197%
same,numbers of intact nuclei relative to IM,"oligodendroglial cells; IM + 10^−9 M, 24 h, metabolite experiments (FIG. 11)",103%
same,Survival (24 h),"oligodendroglial cells; OL cell survival, relative to control (IM)",++++
same,"band densities for MBP, CNP-ase I and PLP compared to IM",[2],exceed those for IM
same,"immunodensity of marker proteins (MBP, PLP, GC, CNPase-I) compared to BM",[2],marked increase in immunodensity compared to BM
same,"mitochondrial CMTMR fluorescence distributions (ΔψM) in ASTs, PROLs and OLs","[1]; BM + 10^−9 M, 18 h",not significantly different to those found for IM; also recorded: prevented the decrease in ΔψM
same,ΔΨM (18 h),"[1]; OL, relative to control (IM)",++++
CN[C@@H](C)Cc1ccccc1 [(−)-methamphetamine],increase in numbers of intact nuclei induced by (−)-deprenyl,"oligodendroglial cells; 10^−5, 10^−7, 10^−9 M in combination with 10^−9 M (−)-deprenyl in BM, 24 h",significantly reduced the increase in numbers of intact nuclei induced by (−)-deprenyl in a graded concentration dependent manner
same,counts of intact nuclei compared to BM,oligodendroglial cells; 24 h,did alter the counts of intact nuclei
same,capacity of (−)-deprenyl and (−)-desmethyldeprenyl to maintain ΔψM in OL mitochondria,[1]; 18 h,reduce the capacity of (−)-deprenyl and (−)-desmethyldeprenyl to maintain ΔψM
"Cc1c2oc3c(C)ccc(C(=O)N[C@@H]4C(=O)N[C@H](C(C)C)C(=O)N5CCC[C@H]5C(=O)N(C)CC(=O)N(C)[C@@H](C(C)C)C(=O)O[C@@H]4C)c3nc-2c(C(=O)N[C@@H]2C(=O)N[C@H](C(C)C)C(=O)N3CCC[C@H]3C(=O)N(C)CC(=O)N(C)[C@@H](C(C)C)C(=O)O[C@@H]2C)c(N)c1=O [actinomycin] (I: T[dV]P[Sar][NMeV] / II: T[dV]P[Sar][NMeV]; ester I:1-I:C, II:1-II:C; linker I:N-II:N via Actinocin(9to1))",numbers of intact nuclei for IGF-I and insulin withdrawn cells,oligodendroglial cells; 24 h,Neither agent altered the numbers of intact nuclei
C[C@@H]1C[C@@H]([C@H](O)CC2CC(=O)NC(=O)C2)C(=O)[C@@H](C)C1 [cycloheximide],numbers of intact nuclei for IGF-I and insulin withdrawn cells,oligodendroglial cells; 24 h,Neither agent altered the numbers of intact nuclei
"CC(C)(C(=O)c1cccnc1)c1cccnc1 [metapyrone, 2-methyl-1,2-di(3-pyridyl)-1-propanone]",increases in ΔψM induced by (−)-deprenyl on OL mitochondria,[1]; 18 h,blocked the increases in ΔψM induced by (−)-deprenyl
CCCC(C(=O)OCCN(CC)CC)(c1ccccc1)c1ccccc1 [proadifen],number of intact nuclei when compared to IM,"oligodendroglial cells; proadifen 2.5 μM with 10^−9 M (−)-deprenyl in BM, 24 h",144%
same,number of intact nuclei when compared to IM,"oligodendroglial cells; proadifen 10 μM with 10^−9 M (−)-deprenyl in BM, 24 h",109%
same,number of intact nuclei when compared to IM,"oligodendroglial cells; proadifen 25 μM with 10^−9 M (−)-deprenyl in BM, 24 h",91%
same,intact nuclei values for BM only,"oligodendroglial cells; proadifen 2.5, 10, 25 μM alone in BM, 24 h",did alter the values for BM only
same,increase in intact nuclei induced by 10^−9 M (−)-desmethyldeprenyl,"oligodendroglial cells; proadifen 2.5, 10, 25 μM with 10^−9 M (−)-desmethyldeprenyl in BM, 24 h",did not reduce the increase in intact nuclei
same,increases in ΔψM induced by (−)-deprenyl on OL mitochondria,[1]; 18 h,blocked the increases in ΔψM induced by (−)-deprenyl
